Source: patent US6020374A, “Biologically active synthetic dye compounds” (priority 1998, dated 2000)

Experiments:
IRS-1 [1] = assay: IRS-1 tyrosine phosphorylation and association with p85/Grb2 in MCF-7 cells; type: cell-based; conditions: 5 mins., ATA or EB 300 μg/ml, IGF-1 20 ng/ml
Method: FIG. 3 is the effect of ATA and EB on tyrosine phosphorylation or IRS-1: MCF-7 cells grown in 100 mm dishes, were treated with ATA or EB, each at 300 μg/ml, or 20 ng/ml IGF-1 for 5 mins. Total cell extracts, solubilized in Buffer A, were subjected to immunoprecipitation with antibodies to IRS-1 (a) or Grb2 (b). The immunocomplexes, precipitated with protein G-Sepharose beads, were subjected to 7.5% SDS-PAGE followed by immunoblotting with a phosphotyrosine antibody, an antibody to the 85-kDa subunit of PI3-kinase or antibody to IRS-1.
(§1) Cells were solubilized in Buffer A or C. Extracts were immunoprecipitated at 4° C. with antibodies to IRS-1, IRS-2, IGF-1 or IR receptor or Grb2, adsorbed on protein A-Sepharose beads. The immunocomplexes were pelleted by centrifugation at 12,000×g and washed twice with Buffer A, and twice with Buffer A containing 0.1% Triton x-100. The pellets were then suspended in Laemmli sample buffer and resolved on 7.5% SDS-PAGE.
(§2) Nitrocellulose blots of proteins were incubated with the antibodies, and proteins were detected by enhanced chemiluminescence using horseradish peroxidase-labeled protein A, horseradish peroxidase-labeled anti rabbit IgG or horseradish peroxidase-labeled anti-mouse IgG.
(§3) MCF-7 cells were stimulated with ATA, EB or IGF-1, solubilized and immunoprecipitated with anti IRS-1 or IRS-2 antibodies, separated by SDS-PAGE and immunoblotted with anti-phosphotyrosine antibody. […] The association of IRS-1 with Grb-2 was evaluated in lysates from treated cells which were immunoblotted with antibodies to either phosphotyrosine or IRS-1.

cells = conditions: apoptosis induced by growth factor deprivation or by drugs such as cycloheximide (CX); cited from earlier work
IRS-2 [2] = assay: IRS-2 association with p85 of PI3-kinase in MCF-7 cells; type: cell-based; conditions: 5 mins., ATA or EB 300 μg/ml, IGF-1 20 ng/ml
Method: FIG. 4 is the effect of ATA and EB on tyrosine phosphorylation of IRS-2: MCF-7 cells were treated as in FIG. 3. Total cell extracts, solubilized in Buffer C, were immunoprecipitated with an antibody to IRS-2. The immunocomplexes, precipitated with protein A-Sepharose beads were subjected to 7.5% SDS-PAGE, followed by immunoblotting with a phosphotyrosine antibody and an antibody to the 85-kDA subunit of PI3-kinase.
as §1, §2, §3

MAPKs 1 and 2 = assay: Activation of MAPKs in FaO cells; type: cell-based, rat; conditions: 5 mins., EB 200 μg/ml, insulin 600 ng/ml
Method: (§4) FIG. 9 is the tyrosine phosphorylation of the IR cascade in Fao cells: A--Immunoblot analysis: Fao cells were deprived of serum for 20 hours, then incubated with EB, ATA, at 200 μg/ml or insulin at 600 ng/ml for 5 mins. Cell extracts were subjected to immunoprecipitation with antibodies to: IR β-subunit (αIR), IRS-1 (αIRS-1) and to IRS-2 (αIRS-2). The immunoprecipitates and total cell extracts were analyzed by SDS-PAGE. Proteins were transferred to nitrocellulose papers, and phosphotyrosine containing proteins were probed with anti-phosphotyrosine antibodies (αP-Tyr), antibody to the 85-kDa subunit of PI3-kinase (αp85) and antibodies to active MAPK (α active MAPK). The immunoblots were visualized by ECL (Amersham).
as §2
In the rat hepatoma cell line FaO, EB and insulin, enhanced IRS-1 and IRS-2 tyrosine phosphorylation and their association with the 85-kDa regulatory subunit of the PI-kinase (FIG. 9A). PI3-kinase activity increases following its association with IRS-1 and IRS-2 (FIG. 9C). MAPKs 1 and 2 were activated by EB and insulin (FIG. 9A).

IRS-1 [3] = assay: IRS-1 tyrosine phosphorylation and association with p85 in FaO cells; type: cell-based, rat; conditions: 5 mins., EB 200 μg/ml, insulin 600 ng/ml
Method: as §4
(§5) MCF-7 cells were grown in 35 or 100 mm dishes in DMEM with 5% bovine fetal serum. Rat hepato FaO cells were grown in RPMI 1640 medium supplemented with 10% fetal calf serum. Subconfluent monolayers of MCF-7 cells or FaO cells, were deprived of serum for 20 hours prior to each experiment. The medium was removed, and cells were incubated at 37° C. under the conditions as indicated for each experiment. […]
(§6) Nitrocellulose blots of proteins were incubated with the antibodies, and proteins were detected by enhanced chemiluminescence using horseradish peroxidase-labeled protein A, horseradish peroxidase-labeled anti rabbit IgG or horseradish peroxidase-labeled anti-mouse IgG. […]

[4] = high doses; cited from earlier work
PI3-kinase = assay: In vivo PI3-kinase activity in rat liver; conditions: Sprague-Dawley male rats, portal vein, 5 mins. after injection, EB 20 mg/rat, insulin 1 u/rat
Method: B--Induction of PI3-kinase. PI3-kinase activity, 5 mins. after injection was assayed as described in FIG. 9C. The results are representative of 2 to 4 independent experiments.
(§7) EB (20 mg/rat) or insulin (1 u/rat) was injected into about 120 g weighing Sprague-Dawley male rats, via the portal vein. Control rats were injected with saline (SAL) alone. The rats were killed and the livers excised and frozen in liquid nitrogen at the indicated times.

IRS-2 [5] = assay: IRS-2 tyrosine phosphorylation and association with p85 in FaO cells; type: cell-based, rat; conditions: 5 mins., EB 200 μg/ml, insulin 600 ng/ml
Method: as §4, §5, §6

[6] = test system: IR, IRS-1 and the 85-kDa regulatory subunit of PI3-kinase; assay: In vivo tyrosine phosphorylation of the IR cascade in rat liver; conditions: Sprague-Dawley male rats, portal vein injection, EB 20 mg/rat, insulin 1 u/rat
Method: A--Immunoblot analysis. Rat liver extracts were subjected to immunoprecipitation and blotting with the indicated antibodies, as described in the legend to FIG. 9A.
as §7

SMILES	Association of IRS-1 with Grb-2 (IRS-1 [1])	Association of p85 subunit of PI3-k with IRS-1 (IRS-1 [1])	Phosphorylation of IRS-1 (IRS-1 [1])	Protection of cells from apoptosis (cells)	Association of p85 subunit of PI3-k with IRS-2 (IRS-2 [2])	Activation of MAPKs 1 and 2 (MAPKs 1 and 2)	IRS-1 tyrosine phosphorylation and association with the 85-kDa regulatory subunit of PI-kinase (IRS-1 [3])	Toxicity to humans [4]	PI3-kinase activity in liver (PI3-kinase)	IRS-2 tyrosine phosphorylation and association with the 85-kDa regulatory subunit of PI-kinase (IRS-2 [5])	Tyrosine phosphorylation of IR, IRS-1 and 85-kDa subunit of PI3-kinase in liver [6]
O=C(O)C1=CC(=C(c2ccc(O)c(C(=O)O)c2)c2ccc(O)c(C(=O)O)c2)C=CC1=O [ATA, Aurintricarboxylic acid]	IRS-1 co-precipitated with Grb2	p85 precipitates with IRS-1	stimulated the phosphorylation of IRS-1	protect cells from apoptosis	p85 precipitates	–	–	–	–	–	–
Cc1cc(-c2ccc(N=Nc3ccc4c(S(=O)(=O)O)cc(S(=O)(=O)O)c(N)c4c3O)c(C)c2)ccc1N=Nc1ccc2c(S(=O)(=O)O)cc(S(=O)(=O)O)c(N)c2c1O [EB, Evan's Blue]	IRS-1 co-precipitated with Grb2	p85 precipitates with IRS-1	stimulated the phosphorylation of IRS-1	–	p85 precipitates	activated	enhanced	non-toxic to humans at high doses	increased	enhanced	phosphorylated tyrosines of IR, IRS-1 and the 85-kDa of the regulatory subunit of PI3-kinase
